Eleven molecules from PubChem BioAssay AID272 (DTP/NCI, 2004) can be followed below.

This experiment deals with Lewis lung carcinoma i.m., BDF1 mice, T/C %. Nature of the experiment: NCI In Vivo Anticancer Drug Screen. Data for tumor model Lewis Lung Carcinoma (intramuscular) in B6D2F1 (BDF1) mice. Summed up: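 Antitumour activity is assessed in transplanted-tumour mice. Endpoint is survival or tumour size, normalised to vehicle-dosed controls (T/C).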
Setting [1] is: endpoint: mean tumor weight (est.), dose: 100.0 mg/kg/injection, schedule: Q01DX011 (ip), vehicle: saline with Tween-80, higher = larger tumour.
The mark [2] stands for this setting: endpoint: mean tumor weight (est.), dose: 5.0 mg/kg/injection, schedule: Q01DX011 (ip), vehicle: saline, higher = larger tumour.
Where [3] appears, read: endpoint: mean tumor weight (est.), dose: 10.0 mg/kg/injection, schedule: Q01DX011 (ip), vehicle: saline, higher = larger tumour.
The mark [4] stands for this setting: endpoint: median survival time, dose: 5.0 mg/kg/injection, schedule: Q01DX011 (ip), vehicle: saline, higher = longer survival.
[5] abbreviates: endpoint: median survival time, dose: 10.0 mg/kg/injection, schedule: Q01DX011 (ip), vehicle: saline, higher = longer survival.

Values joined by “and” are separate entries in the source; they are usually repeats but may differ in a detail not shown here. Equal values may be shown once. Inconclusive results are not listed.

`CCC[CH2][Sn]1([CH2]CCC)[O]OC(c2ccccc2)[O]1` (centres undefined): the T/C is, setting by setting: (endpoint: median survival time, dose: 0.5 mg/kg/injection, schedule: Q01DX009 (ip), vehicle: saline, higher = longer survival) 107 % of control; (endpoint: median survival time, dose: 1.0 mg/kg/injection, schedule: Q01DX009 (ip), vehicle: saline, higher = longer survival) 114 % of control; (endpoint: median survival time, dose: 2.0 mg/kg/injection, schedule: Q01DX009 (ip), vehicle: saline, higher = longer survival) 106 % of control; (endpoint: median survival time, dose: 4.0 mg/kg/injection, schedule: Q01DX009 (ip), vehicle: saline, higher = longer survival) 113 % of control.
Turning to `O=c1ccc2nc3ccccc3sc-2c1`, the T/C runs as follows: (endpoint: mean tumor weight (est.), dose: 12.5 mg/kg/injection, schedule: Q01DX011 (ip), vehicle: saline with Tween-80, higher = larger tumour) 73 % of control; (endpoint: mean tumor weight (est.), dose: 25.0 mg/kg/injection, schedule: Q01DX011 (ip), vehicle: saline with Tween-80, higher = larger tumour) 75 % of control; (endpoint: mean tumor weight (est.), dose: 50.0 mg/kg/injection, schedule: Q01DX011 (ip), vehicle: saline with Tween-80, higher = larger tumour) 78 % of control; under setting [1], 42 % of control; (endpoint: median survival time, dose: 25.0 mg/kg/injection, schedule: Q01DX011 (ip), vehicle: saline with Tween-80, higher = longer survival) 89 % of control.
In the case of `CCCCCCCCCCCCCCCCCC[N+](C)(C)C` (tested in a mixture with another compound), the T/C (endpoint: mean tumor weight, dose: 1.0 mg/kg/injection, schedule: Q01DX011 (ip), vehicle: saline, higher = larger tumour) is 59 % of control; the T/C (endpoint: mean tumor weight, dose: 2.0 mg/kg/injection, schedule: Q01DX011 (ip), vehicle: saline, higher = larger tumour) was 64 % of control; the T/C (endpoint: median survival time, dose: 2.0 mg/kg/injection, schedule: Q01DX011 (ip), vehicle: saline, higher = longer survival) is 88 % of control.
As for `CC(C)n1c2c([n+](C)c1/C=C/c1ccccc1)C(=O)c1ccccc1C2=O`, the T/C (endpoint: mean tumor weight (est.), dose: 1.0 mg/kg/injection, schedule: Q01DX011 (ip), vehicle: saline with Tween-80, higher = larger tumour) is 43 % of control.
`N=c1ccn2c(n1)OC1C(O)C(CO)OC12` (centres undefined): the T/C is 34 % of control (endpoint: mean tumor weight, dose: 200.0 mg/kg/injection, schedule: Q01DX011 (ip), vehicle: water, higher = larger tumour); 64 % of control (endpoint: mean tumor weight, dose: 400.0 mg/kg/injection, schedule: Q01DX011 (ip), vehicle: water, higher = larger tumour); 115 % of control (endpoint: median survival time, dose: 200.0 mg/kg/injection, schedule: Q01DX011 (ip), vehicle: water, higher = longer survival); 124 % of control (endpoint: median survival time, dose: 400.0 mg/kg/injection, schedule: Q01DX011 (ip), vehicle: water, higher = longer survival).
For `O=C1C=C(N2CC2)c2ccccc2C1=O`, the T/C was 74 % of control under setting [2], 58 % of control under setting [3], 100 % of control under setting [4] and 100 % of control under setting [5].
Regarding `COc1cc2c3c(c4ccc(OC)c(OC)c4c2cc1OC)CN1CCC[C@@H]1C3`, the T/C is 88 % of control and 93 % of control (endpoint: mean tumor weight, dose: 1.0 mg/kg/injection, schedule: Q01DX011 (ip), vehicle: Klucel (hydroxypropylcellulose) (HPC), higher = larger tumour); 69 % of control and 77 % of control (endpoint: mean tumor weight, dose: 2.0 mg/kg/injection, schedule: Q01DX011 (ip), vehicle: Klucel (hydroxypropylcellulose) (HPC), higher = larger tumour); 85 % of control and 89 % of control (endpoint: mean tumor weight, dose: 4.0 mg/kg/injection, schedule: Q01DX011 (ip), vehicle: Klucel (hydroxypropylcellulose) (HPC), higher = larger tumour); 64 % of control and 73 % of control (endpoint: mean tumor weight, dose: 8.0 mg/kg/injection, schedule: Q01DX011 (ip), vehicle: Klucel (hydroxypropylcellulose) (HPC), higher = larger tumour); 41 % of control (endpoint: mean tumor weight, dose: 16.0 mg/kg/injection, schedule: Q01DX011 (ip), vehicle: Klucel (hydroxypropylcellulose) (HPC), higher = larger tumour); 102 % of control (endpoint: median survival time, dose: 1.0 mg/kg/injection, schedule: Q01DX011 (ip), vehicle: Klucel (hydroxypropylcellulose) (HPC), higher = longer survival). Moreover, the T/C (endpoint: median survival time, dose: 2.0 mg/kg/injection, schedule: Q01DX011 (ip), vehicle: Klucel (hydroxypropylcellulose) (HPC), higher = longer survival) was 86 % of control; the T/C (endpoint: median survival time, dose: 4.0 mg/kg/injection, schedule: Q01DX011 (ip), vehicle: Klucel (hydroxypropylcellulose) (HPC), higher = longer survival) was 114 % of control; the T/C (endpoint: median survival time, dose: 8.0 mg/kg/injection, schedule: Q01DX011 (ip), vehicle: Klucel (hydroxypropylcellulose) (HPC), higher = longer survival) was 100 % of control.
Take `N=[N+]=CC(=O)CCC(NC(=O)C(CCC(=O)C=[N+]=N)NC(=O)CCC(N)C(=O)O)C(=O)O` (centres undefined): the T/C reads like this: (endpoint: mean tumor weight, dose: 7.5 micrograms/kg/injection, schedule: Q01DX011 (ip), vehicle: water, higher = larger tumour) 63 % of control; (endpoint: mean tumor weight, dose: 15.0 micrograms/kg/injection, schedule: Q01DX011 (ip), vehicle: water, higher = larger tumour) 66 % of control; (endpoint: mean tumor weight, dose: 30.0 micrograms/kg/injection, schedule: Q01DX011 (ip), vehicle: water, higher = larger tumour) 60 % of control; (endpoint: mean tumor weight, dose: 60.0 micrograms/kg/injection, schedule: Q01DX011 (ip), vehicle: water, higher = larger tumour) 63 % of control; (endpoint: median survival time, dose: 0.1 mg/kg/injection, schedule: Q01DX011 (ip), vehicle: saline, higher = longer survival) 88 % of control and 101 % of control; (endpoint: median survival time, dose: 0.2 mg/kg/injection, schedule: Q01DX011 (ip), vehicle: saline, higher = longer survival) 106 % of control. In addition, the T/C runs as follows: (endpoint: median survival time, dose: 0.4 mg/kg/injection, schedule: Q01DX011 (ip), vehicle: saline, higher = longer survival) 101 % of control and 103 % of control; (endpoint: median survival time, dose: 0.8 mg/kg/injection, schedule: Q01DX011 (ip), vehicle: saline, higher = longer survival) 87 % of control; (endpoint: median survival time, dose: 1.6 mg/kg/injection, schedule: Q01DX011 (ip), vehicle: saline, higher = longer survival) 87 % of control; (endpoint: median survival time, dose: 7.5 micrograms/kg/injection, schedule: Q01DX011 (ip), vehicle: water, higher = longer survival) 104 % of control; (endpoint: median survival time, dose: 12.5 micrograms/kg/injection, schedule: Q01DX009 (ip), vehicle: Klucel (hydroxypropylcellulose) (HPC), higher = longer survival) 97 % of control; (endpoint: median survival time, dose: 15.0 micrograms/kg/injection, schedule: Q01DX011 (ip), vehicle: water, higher = longer survival) 106 % of control. The T/C (endpoint: median survival time, dose: 25.0 micrograms/kg/injection, schedule: Q01DX009 (ip), vehicle: Klucel (hydroxypropylcellulose) (HPC), higher = longer survival) is 98 % of control; the T/C (endpoint: median survival time, dose: 30.0 micrograms/kg/injection, schedule: Q01DX011 (ip), vehicle: water, higher = longer survival) is 97 % of control; the T/C (endpoint: median survival time, dose: 50.0 micrograms/kg/injection, schedule: Q01DX009 (ip), vehicle: Klucel (hydroxypropylcellulose) (HPC), higher = longer survival) is 90 % of control; the T/C (endpoint: median survival time, dose: 60.0 micrograms/kg/injection, schedule: Q01DX011 (ip), vehicle: water, higher = longer survival) was 102 % of control; the T/C (endpoint: median survival time, dose: 100.0 micrograms/kg/injection, schedule: Q01DX009 (ip), vehicle: Klucel (hydroxypropylcellulose) (HPC), higher = longer survival) is 98 % of control.
As to `CC(C)NCC(=O)c1ccc(O)c(O)c1`, the T/C (endpoint: mean tumor weight (est.), dose: 42.5 mg/kg/injection, schedule: Q01DX011 (ip), vehicle: saline, higher = larger tumour) is 90 % of control; the T/C (endpoint: mean tumor weight (est.), dose: 85.0 mg/kg/injection, schedule: Q01DX011 (ip), vehicle: saline, higher = larger tumour) was 93 % of control; the T/C (endpoint: median survival time, dose: 42.5 mg/kg/injection, schedule: Q01DX011 (ip), vehicle: saline, higher = longer survival) is 120 % of control; the T/C (endpoint: median survival time, dose: 85.0 mg/kg/injection, schedule: Q01DX011 (ip), vehicle: saline, higher = longer survival) was 90 % of control.
Regarding `COc1ccc(C(=O)c2cc(OC)c(OC)c(OC)c2)cc1OC`, the T/C reads like this: under setting [1], 34 % of control; (endpoint: mean tumor weight (est.), dose: 200.0 mg/kg/injection, schedule: Q01DX011 (ip), vehicle: saline with Tween-80, higher = larger tumour) 51 % of control; (endpoint: mean tumor weight (est.), dose: 400.0 mg/kg/injection, schedule: Q01DX011 (ip), vehicle: saline with Tween-80, higher = larger tumour) 43 % of control; (endpoint: median survival time, dose: 100.0 mg/kg/injection, schedule: Q01DX011 (ip), vehicle: saline with Tween-80, higher = longer survival) 93 % of control; (endpoint: median survival time, dose: 200.0 mg/kg/injection, schedule: Q01DX011 (ip), vehicle: saline with Tween-80, higher = longer survival) 89 % of control; (endpoint: median survival time, dose: 400.0 mg/kg/injection, schedule: Q01DX011 (ip), vehicle: saline with Tween-80, higher = longer survival) 108 % of control.
For the molecule `Cc1[nH]c(=O)[nH]c(=O)c1N(CCF)CCCl`, the T/C by setting is: (endpoint: mean tumor weight (est.), dose: 5.0 mg/kg/injection, schedule: Q01DX011 (ip), vehicle: saline with Tween-80, higher = larger tumour) 69 % of control; under setting [2], 81 % of control; (endpoint: mean tumor weight (est.), dose: 10.0 mg/kg/injection, schedule: Q01DX011 (ip), vehicle: saline with Tween-80, higher = larger tumour) 74 % of control; under setting [3], 80 % of control; (endpoint: mean tumor weight (est.), dose: 20.0 mg/kg/injection, schedule: Q01DX011 (ip), vehicle: saline with Tween-80, higher = larger tumour) 54 % of control; (endpoint: mean tumor weight (est.), dose: 20.0 mg/kg/injection, schedule: Q01DX011 (ip), vehicle: saline, higher = larger tumour) 28 % of control. The T/C is, setting by setting: (endpoint: mean tumor weight (est.), dose: 40.0 mg/kg/injection, schedule: Q01DX011 (ip), vehicle: saline with Tween-80, higher = larger tumour) 24 % of control; (endpoint: median survival time, dose: 5.0 mg/kg/injection, schedule: Q01DX011 (ip), vehicle: saline with Tween-80, higher = longer survival) 101 % of control; under setting [4], 109 % of control; (endpoint: median survival time, dose: 10.0 mg/kg/injection, schedule: Q01DX011 (ip), vehicle: saline with Tween-80, higher = longer survival) 105 % of control; under setting [5], 119 % of control; (endpoint: median survival time, dose: 20.0 mg/kg/injection, schedule: Q01DX011 (ip), vehicle: saline with Tween-80, higher = longer survival) 100 % of control.
